# Assay results as given in PubChem BioAssay (NCI).
#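 Where inhibition never reached the appropriate level, the endpoint shown equals the highest concentration tested. Otherwise, values were interpolated linearly from a five-concentration, 48-hour dose response in 96-well plates. Definition used: TGI = concentration required for complete inhibition of growth.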
# Tests used:
# Assay in all cases: DTP human tumour cell line panel, 48 h
# [1] = tested on: EKVX NSCLC
# [2] = tested on: NCI-H23 lung
# [3] = tested on: HCC-2998 colon
# [4] = tested on: HL-60(TB) leukemia
# [5] = tested on: NCI-H460 lung
# [6] = tested on: SF-295 CNS
# [7] = tested on: SW-620 colon
# [8] = tested on: DLD-1 colon
# [9] = tested on: MALME-3M melanoma
# [10] = tested on: HOP-62 NSCLC
# [11] = tested on: HCT-15 colon
# [12] = tested on: KM12 colon
# [13] = tested on: HOP-18 NSCLC
# [14] = tested on: A498 renal
# [15] = tested on: U251 CNS
# [16] = tested on: OVCAR-8 ovarian
# [17] = tested on: OVCAR-5 ovarian
# [18] = tested on: SF-268 CNS
# [19] = tested on: HT29 colon
# [20] = tested on: NCI-H226 lung
# [21] = tested on: CAKI-1 renal
# [22] = tested on: UACC-62 melanoma
# [23] = tested on: COLO 205 colon
# [24] = tested on: RPMI-8226 leukemia
# [25] = tested on: SN12C renal
# [26] = tested on: OVCAR-4 ovarian
# [27] = tested on: TK-10 renal
# [28] = tested on: HCT-116 colon
# [29] = tested on: IGROV1 ovarian
# [30] = tested on: SK-OV-3 ovarian
# [31] = tested on: SNB-19 CNS
# [32] = tested on: UACC-257 melanoma
# [33] = tested on: MOLT-4 leukemia
# [34] = tested on: K-562 leukemia
# [35] = tested on: ACHN renal
# [36] = tested on: KM20L2 colon
# [37] = tested on: SR leukemia
# [38] = tested on: SK-MEL-28 melanoma
# [39] = tested on: SK-MEL-2 melanoma
# [40] = tested on: LXFL 529 NSCLC
# [41] = tested on: RXF 393 renal
# [42] = tested on: M14 melanoma
# [43] = tested on: A549 NSCLC
# [44] = tested on: LOX IMVI melanoma
# [45] = tested on: SNB-75 CNS
# [46] = tested on: OVCAR-3 ovarian
# [47] = tested on: SNB-78 CNS
# [48] = tested on: SK-MEL-5 melanoma
# [49] = tested on: NCI-H522 lung
# [50] = tested on: 786-0 renal
# [51] = tested on: UO-31 renal
# [52] = tested on: HOP-92 NSCLC
# [53] = tested on: SF-539 CNS
# [54] = tested on: M19-MEL melanoma
# [55] = tested on: CCRF-CEM leukemia
# [56] = tested on: DMS 273 small cell lung
smiles,measurement,setting,value
COc1ccc(C2[C@H]3C(=O)N(c4ccc(Cc5ccc(N6C(=O)[C@@H]7ON(c8ccccc8)C(c8ccc(OC)cc8)[C@@H]7C6=O)cc5)cc4)C(=O)[C@H]3ON2c2ccccc2)cc1 (stereo partly drawn),TGI,[1],> 100 µM
same,TGI,[2],> 100 µM
same,TGI,[3],> 100 µM
same,TGI,[4],> 100 µM
same,TGI,[5],> 100 µM
same,TGI,[6],> 100 µM
same,TGI,[7],> 100 µM
same,TGI,[8],> 100 µM
same,TGI,[9],> 100 µM
same,TGI,[10],> 100 µM
same,TGI,[11],> 100 µM
same,TGI,[12],> 100 µM
same,TGI,[13],> 100 µM
same,TGI,[14],> 100 µM
same,TGI,[15],> 100 µM
same,TGI,[16],> 100 µM
same,TGI,[17],> 100 µM
same,TGI,[18],> 100 µM
same,TGI,[19],> 100 µM
same,TGI,[20],> 100 µM
same,TGI,[21],> 100 µM
same,TGI,[22],> 100 µM
same,TGI,[23],> 100 µM
same,TGI,[24],> 100 µM
same,TGI,[25],> 100 µM
same,TGI,[26],> 100 µM
same,TGI,[27],> 100 µM
same,TGI,[28],> 100 µM
same,TGI,[29],> 100 µM
same,TGI,[30],> 100 µM
same,TGI,[31],> 100 µM
same,TGI,[32],> 100 µM
same,TGI,[33],> 100 µM
same,TGI,[34],> 100 µM
same,TGI,[35],> 100 µM
same,TGI,[36],> 100 µM
same,TGI,[37],> 100 µM
same,TGI,[38],> 100 µM
same,TGI,[39],> 100 µM
same,TGI,[40],> 100 µM
same,TGI,[41],> 100 µM
same,TGI,[42],84.7 µM
same,TGI,[43],> 100 µM
same,TGI,[44],> 100 µM
same,TGI,[45],> 100 µM
same,TGI,[46],> 100 µM
same,TGI,[47],> 100 µM
same,TGI,[48],> 100 µM
same,TGI,[49],> 100 µM
same,TGI,[50],> 100 µM
same,TGI,[51],> 100 µM
same,TGI,[52],> 100 µM
same,TGI,[53],> 100 µM
same,TGI,[54],> 100 µM
same,TGI,[55],> 100 µM
same,TGI,[56],> 100 µM
O=[N+]([O-])c1ccc(C2=NN(c3ccccc3)C[N+](c3ccc(Br)cc3)=N2)cc1,TGI,[1],> 100 µM
same,TGI,[2],> 100 µM
same,TGI,[3],> 100 µM
same,TGI,[5],> 100 µM
same,TGI,[6],> 100 µM
same,TGI,[7],> 100 µM
same,TGI,[8],> 100 µM
same,TGI,[9],> 100 µM
same,TGI,[10],> 100 µM
same,TGI,[11],> 100 µM
same,TGI,[12],> 100 µM
same,TGI,[13],> 100 µM
same,TGI,[14],> 100 µM
same,TGI,[15],> 100 µM
same,TGI,[16],> 100 µM
same,TGI,[17],> 100 µM
same,TGI,[18],> 100 µM
same,TGI,[19],> 100 µM
same,TGI,[20],> 100 µM
same,TGI,[21],> 100 µM
same,TGI,[22],> 100 µM
same,TGI,[23],> 100 µM
same,TGI,[24],> 100 µM
same,TGI,[25],> 100 µM
same,TGI,[26],> 100 µM
same,TGI,[27],> 100 µM
same,TGI,[28],> 100 µM
same,TGI,[29],> 100 µM
same,TGI,[30],> 100 µM
same,TGI,[31],> 100 µM
same,TGI,[32],> 100 µM
same,TGI,[33],> 100 µM
same,TGI,[34],> 100 µM
same,TGI,[35],> 100 µM
same,TGI,[36],> 100 µM
same,TGI,[37],> 100 µM
same,TGI,[38],> 100 µM
same,TGI,[39],> 100 µM
same,TGI,[40],> 100 µM
same,TGI,[41],79.8 µM
same,TGI,[42],> 100 µM
same,TGI,[43],> 100 µM
same,TGI,[45],> 100 µM
same,TGI,[47],> 100 µM
same,TGI,[48],> 100 µM
same,TGI,[49],> 100 µM
same,TGI,[50],> 100 µM
same,TGI,[51],> 100 µM
same,TGI,[52],> 100 µM
same,TGI,[53],> 100 µM
same,TGI,[54],> 100 µM
same,TGI,[56],> 100 µM
